Assay results published in US20220281821A1, “INDAZOLE COMPOUNDS AND THEIR PHARMACEUTICAL COMPOSITIONS” (Jinan University, priority 2019, published 2022).

Legend:
TRKA = target: T1, TRKA (Homo sapiens, UniProt P04629); assay: Z′-LYTE kinase activity assay, TRKA; format: biochemical; conditions: ATP 400 uM
T1 construct: purchased life technologies PV3144
Description: (§1) Kinase activity assay: Z′-LYTE™ technology (detection by fluorescence, enzyme-conjugated format, based on the difference in sensitivity of phosphorylated and non-phosphorylated peptides to proteolytic cleavage) was applied, and using the principle of fluorescence resonance energy transfer (FRET), a Z′-LYTE™ FRET peptide substrate (Z′-LYTE™ Tyrosine 1 Peptide Substrate, Invitrogen, PV3190), and a secondary reaction were used to detect the inhibitory activity of the compounds on TRKs (TRK1, TRK2, TRK3) (life technologies, PV3144, PV3616, PV3617).
(§2) Enzymatic reaction: In a 384-well plate, 5 μL of an enzyme-substrate system (50 mM HEPES pH 7.5, 0.01% BRIJ-35, 10 mM MgCl2, 1 mM EGTA, 2 μM Tyr 01 Peptide Substrate) was added and 5 nL of compound (concentration gradient) was transferred thereto by using the echo520 ultramicro liquid pipetting system. […] After shaking and mixing, centrifuging was performed. A reaction was carried out at 30° C. in the dark for 1.5 hours.
(§3) The data were analyzed as follows:
(§4) Phosphorylation ratio=1−{(emission ratio×F100%−C100%)/[C0%−C100%+emission ratio×(F100%−F0%)]}×100;
(§5) Inhibition rate=100×(1−compound phosphorylation ratio/negative control phosphorylation ratio).
(§6) IC50 values were calculated by using GraphPad Prism 5.0 software.

TRKB = target: T2, TRKB (Homo sapiens, UniProt Q16620); assay: Z′-LYTE kinase activity assay, TRKB; format: biochemical; conditions: ATP 25 uM
T2 construct: purchased life technologies PV3616
T2 sequence (Q16620 32-822): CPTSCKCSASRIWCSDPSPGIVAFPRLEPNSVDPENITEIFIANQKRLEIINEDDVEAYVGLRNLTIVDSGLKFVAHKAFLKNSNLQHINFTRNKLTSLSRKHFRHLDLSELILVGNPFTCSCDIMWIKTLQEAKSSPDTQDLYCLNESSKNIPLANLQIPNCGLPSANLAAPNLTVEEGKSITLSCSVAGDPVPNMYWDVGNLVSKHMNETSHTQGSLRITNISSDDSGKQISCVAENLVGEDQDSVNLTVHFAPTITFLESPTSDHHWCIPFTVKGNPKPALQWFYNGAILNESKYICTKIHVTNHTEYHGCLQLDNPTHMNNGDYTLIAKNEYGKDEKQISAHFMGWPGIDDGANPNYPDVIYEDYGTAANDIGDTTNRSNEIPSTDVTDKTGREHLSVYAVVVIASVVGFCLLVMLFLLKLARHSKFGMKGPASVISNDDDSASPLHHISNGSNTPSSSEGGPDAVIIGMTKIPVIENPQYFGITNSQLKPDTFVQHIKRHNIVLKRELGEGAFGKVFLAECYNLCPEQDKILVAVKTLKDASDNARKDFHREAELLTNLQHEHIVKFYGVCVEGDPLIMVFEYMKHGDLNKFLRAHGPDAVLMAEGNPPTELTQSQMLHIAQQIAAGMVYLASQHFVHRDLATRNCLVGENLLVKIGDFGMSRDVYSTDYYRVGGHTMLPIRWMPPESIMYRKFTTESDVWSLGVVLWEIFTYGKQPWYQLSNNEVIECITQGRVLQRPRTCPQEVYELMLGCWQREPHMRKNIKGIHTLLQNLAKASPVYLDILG
Description: as §1, §2, §3, §4, §5, §6

TRKC = target: T3, TRKC (Homo sapiens, UniProt Q16288); assay: Z′-LYTE kinase activity assay, TRKC; format: biochemical; conditions: ATP 50 uM
T3 construct: purchased life technologies PV3617
T3 sequence (Q16288 32-839): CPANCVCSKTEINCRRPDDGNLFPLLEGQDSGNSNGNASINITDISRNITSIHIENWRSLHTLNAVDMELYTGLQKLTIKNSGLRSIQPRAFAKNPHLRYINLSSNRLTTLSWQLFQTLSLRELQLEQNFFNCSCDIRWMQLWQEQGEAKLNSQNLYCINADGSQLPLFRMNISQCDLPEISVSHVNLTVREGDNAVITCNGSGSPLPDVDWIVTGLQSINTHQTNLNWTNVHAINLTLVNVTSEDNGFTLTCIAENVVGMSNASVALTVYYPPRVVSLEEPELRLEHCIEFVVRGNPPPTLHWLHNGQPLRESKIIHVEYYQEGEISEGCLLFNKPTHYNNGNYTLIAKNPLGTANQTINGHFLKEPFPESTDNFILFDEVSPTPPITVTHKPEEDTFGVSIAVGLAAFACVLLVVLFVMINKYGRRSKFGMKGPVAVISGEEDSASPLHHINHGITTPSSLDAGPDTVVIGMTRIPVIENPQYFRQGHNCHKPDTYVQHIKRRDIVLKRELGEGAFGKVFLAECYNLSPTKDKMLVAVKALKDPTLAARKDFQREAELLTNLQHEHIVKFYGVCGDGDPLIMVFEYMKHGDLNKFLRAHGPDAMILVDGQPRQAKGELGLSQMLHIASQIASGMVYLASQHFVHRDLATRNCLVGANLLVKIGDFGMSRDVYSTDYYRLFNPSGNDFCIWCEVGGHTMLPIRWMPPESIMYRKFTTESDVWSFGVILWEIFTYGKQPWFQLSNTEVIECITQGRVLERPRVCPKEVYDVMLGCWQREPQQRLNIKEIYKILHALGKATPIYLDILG
Description: as §1, §2, §3, §6

BaF3-CD74-NTRK1 = target: T4, BaF3-CD74-NTRK1 (Homo sapiens, UniProt P04629); assay: Cell proliferation inhibition (CCK-8), BaF3-CD74-NTRK1 stable strain; format: cell-based, mouse; conditions: BaF3-CD74-NTRK1, 72 hours
T4 construct: fused on or other part: P04233 (HLA class II histocompatibility antigen gamma chain)
T4 sequence (P04629 510-796 limits assumed): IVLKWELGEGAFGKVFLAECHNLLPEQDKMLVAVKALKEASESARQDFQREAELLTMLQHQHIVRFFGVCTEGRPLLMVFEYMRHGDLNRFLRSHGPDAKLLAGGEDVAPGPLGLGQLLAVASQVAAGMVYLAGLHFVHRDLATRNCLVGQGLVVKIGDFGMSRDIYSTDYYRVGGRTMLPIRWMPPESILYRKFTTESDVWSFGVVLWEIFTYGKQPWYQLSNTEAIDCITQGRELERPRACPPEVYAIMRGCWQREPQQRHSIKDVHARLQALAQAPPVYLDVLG
In short: (§7)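 Ba/F3 cells stably electroporated with ETV6-NTRK3, CD74-NTRK1 or ETV6-NTRK2, selected with G418 and grown without IL3, then cloned by limiting dilution.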

BaF3-ETV6-NTRK2 = target: T5, BaF3-ETV6-NTRK2 (Homo sapiens, UniProt Q16620); assay: Cell proliferation inhibition (CCK-8), BaF3-ETV6-NTRK2 stable strain; format: cell-based, mouse; conditions: BaF3-ETV6-NTRK2, 72 hours
T5 construct: fused on or other part: P41212 (Transcription factor ETV6)
T5 sequence (Q16620 538-822 limits assumed): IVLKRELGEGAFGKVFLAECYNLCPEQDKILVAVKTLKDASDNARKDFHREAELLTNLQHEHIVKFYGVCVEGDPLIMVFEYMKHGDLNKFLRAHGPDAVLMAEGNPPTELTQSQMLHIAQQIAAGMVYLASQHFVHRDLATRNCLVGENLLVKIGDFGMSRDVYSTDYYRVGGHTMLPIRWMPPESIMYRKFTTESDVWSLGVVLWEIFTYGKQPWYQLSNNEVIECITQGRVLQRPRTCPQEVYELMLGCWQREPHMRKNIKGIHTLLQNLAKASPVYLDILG
In short: as §7

BaF3-ETV6-NTRK3 = target: T6, BaF3-ETV6-NTRK3 (Homo sapiens, UniProt Q16288); assay: Cell proliferation inhibition (CCK-8), BaF3-ETV6-NTRK3 stable strain; format: cell-based, mouse; conditions: BaF3-ETV6-NTRK3, 72 hours
T6 construct: fused on or other part: P41212 (Transcription factor ETV6)
T6 sequence (Q16288 whole entry, the tested form may be a part): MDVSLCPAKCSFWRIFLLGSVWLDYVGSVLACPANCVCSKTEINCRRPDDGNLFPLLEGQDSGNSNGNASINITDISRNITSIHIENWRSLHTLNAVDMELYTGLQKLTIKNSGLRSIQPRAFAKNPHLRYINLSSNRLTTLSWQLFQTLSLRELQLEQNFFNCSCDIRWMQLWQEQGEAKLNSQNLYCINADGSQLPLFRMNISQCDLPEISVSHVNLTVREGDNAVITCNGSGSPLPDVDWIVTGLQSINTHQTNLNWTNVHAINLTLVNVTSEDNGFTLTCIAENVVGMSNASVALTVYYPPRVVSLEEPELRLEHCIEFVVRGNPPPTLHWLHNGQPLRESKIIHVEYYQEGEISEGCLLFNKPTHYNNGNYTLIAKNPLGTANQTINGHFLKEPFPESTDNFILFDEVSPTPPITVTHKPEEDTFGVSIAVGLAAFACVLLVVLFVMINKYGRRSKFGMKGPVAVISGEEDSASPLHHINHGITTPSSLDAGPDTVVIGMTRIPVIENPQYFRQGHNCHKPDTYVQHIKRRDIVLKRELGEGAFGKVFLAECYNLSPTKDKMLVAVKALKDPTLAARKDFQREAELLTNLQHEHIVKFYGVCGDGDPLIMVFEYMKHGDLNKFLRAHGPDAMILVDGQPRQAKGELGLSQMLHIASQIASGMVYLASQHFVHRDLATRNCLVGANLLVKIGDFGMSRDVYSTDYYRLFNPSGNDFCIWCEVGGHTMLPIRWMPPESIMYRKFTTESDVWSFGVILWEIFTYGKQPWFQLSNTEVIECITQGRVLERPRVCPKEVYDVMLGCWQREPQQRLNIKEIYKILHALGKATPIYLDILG
In short: as §7

T1 sequence (P04629 440-796 limits assumed): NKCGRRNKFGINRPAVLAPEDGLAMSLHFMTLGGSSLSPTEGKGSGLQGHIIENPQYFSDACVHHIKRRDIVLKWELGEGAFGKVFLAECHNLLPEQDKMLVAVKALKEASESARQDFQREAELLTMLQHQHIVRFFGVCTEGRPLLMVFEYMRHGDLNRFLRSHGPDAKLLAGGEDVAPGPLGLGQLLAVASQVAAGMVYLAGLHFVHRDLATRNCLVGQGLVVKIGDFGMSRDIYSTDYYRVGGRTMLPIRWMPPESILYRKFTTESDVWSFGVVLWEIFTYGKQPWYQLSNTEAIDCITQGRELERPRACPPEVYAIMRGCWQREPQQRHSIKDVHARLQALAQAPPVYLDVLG

Compound | IC50 (TRKA) | IC50 (TRKB) | IC50 (TRKC) | IC50 (BaF3-CD74-NTRK1) | IC50 (BaF3-ETV6-NTRK2) | IC50 (BaF3-ETV6-NTRK3)
Fc1ccc(Cc2ccc3[nH]nc(/C=C/c4ccccn4)c3c2)cc1F [DYX-059, (E)-5-(3,4-difluorobenzyl)-3-(2-(pyridin-2-yl)vinyl)-1H-indazole] | 250 nM | > 1000 nM | 160 nM | 7940 nM | 8820 nM | 3250 nM
Fc1ccc(Cc2ccc3[nH]nc(/C=C/c4ccccn4)c3c2)c(F)c1 [DYX-060, (E)-5-(2,4-difluorobenzyl)-3-(2-(pyridin-2-yl)vinyl)-1H-indazole] | 818 nM | 375 nM | 620 nM | > 10000 nM | > 10000 nM | > 10000 nM
Fc1cccc(F)c1Cc1ccc2[nH]nc(C#Cc3ccccn3)c2c1 [DYX-071, 5-(2,6-difluorobenzyl)-3-(pyridin-2-ylethynyl)-1H-indazole] | 217 nM | 385 nM | 113 nM | 7730 nM | 2890 nM | 2740 nM
Fc1cccc(Cc2ccc3[nH]nc(C#Cc4ccccn4)c3c2)c1F [DYX-074, 5-(2,3-difluorobenzyl)-3-(pyridin-2-ylethynyl)-1H-indazole] | 72 nM | 435 nM | 41 nM | 2500 nM | 2830 nM | 2200 nM
Fc1cc(Cc2ccc3[nH]nc(C#Cc4ccccn4)c3c2)cc(F)c1F [DYX-075, 3-(pyridin-2-ylethynyl)-5-(3,4,5-trifluorobenzyl)-1H-indazole] | > 1000 nM | > 1000 nM | > 1000 nM | 2480 nM | > 10000 nM | > 10000 nM
Fc1cc(Cc2ccc3[nH]nc(/C=C/c4ccccn4)c3c2)cc(F)c1F [DYX-083, (E)-3-(2-(pyridin-2-yl)vinyl)-5-(3,4,5-trifluorobenzyl)-1H-indazole] | 628 nM | > 1000 nM | 191 nM | 7500 nM | 3020 nM | 3310 nM
Fc1cc(F)cc(Sc2ccc3[nH]nc(C#Cc4ccccn4)c3c2)c1 [DYX-086, 5-((3,5-difluorophenyl)thio)-3-(pyridin-2-ylethynyl)-1H-indazole] | 54.2 nM | 241 nM | 111 nM | 3600 nM | 2600 nM | 3710 nM
Fc1cc(F)cc(Oc2ccc3[nH]nc(C#Cc4ccccn4)c3c2)c1 [DYX-092, 5-(3,5-difluorophenoxy)-3-(pyridin-2-ylethynyl)-1H-indazole] | 51.7 nM | 310 nM | 200 nM | 3060 nM | 2610 nM | 2770 nM
Fc1cc(F)cc(-c2ccc3[nH]nc(C#Cc4ccccn4)c3c2)c1 [DYX-115, 5-(3,5-difluorophenyl)-3-(pyridin-2-ylethynyl)-1H-indazole] | > 1000 nM | > 1000 nM | > 1000 nM | > 10000 nM | > 10000 nM | > 10000 nM
Fc1cc(F)cc(-c2ccc3[nH]nc(/C=C/c4ccccn4)c3c2)c1 [DYX-119, (E)-5-(3,5-difluorophenyl)-3-(2-(pyridin-2-yl)vinyl)-1H-indazole] | 648 nM | > 1000 nM | 226 nM | > 10000 nM | > 10000 nM | > 10000 nM
Fc1cc(F)cc(Nc2ccc3[nH]nc(C#Cc4ccccn4)c3c2)c1 [DYX-129, N-(3,5-difluorophenyl)-3-(pyridin-2-ylethynyl)-1H-indazol-5-amine] | > 1000 nM | > 1000 nM | 575 nM | 9980 nM | 2800 nM | 3150 nM
CN(c1cc(F)cc(F)c1)c1ccc2[nH]nc(C#Cc3ccccn3)c2c1 [DYX-130, N-(3,5-difluorophenyl)-N-methyl-3-(pyridin-2-ylethynyl)-1H-indazol-5-amine] | 319 nM | 993 nM | 235 nM | 3810 nM | 9840 nM | 3090 nM
Clc1cccc(Cc2ccc3[nH]nc(C#Cc4ccccn4)c3c2)c1 [DYX-134Q, 5-(3-chlorobenzyl)-3-(pyridin-2-ylethynyl)-1H-indazole] | 91.9 nM | 124 nM | 40.3 nM | > 10000 nM | 4620 nM | 2650 nM
Clc1cccc(Cc2ccc3[nH]nc(/C=C/c4ccccn4)c3c2)c1 [DYX-134X, (E)-5-(3-chlorobenzyl)-3-(2-(pyridin-2-yl)vinyl)-1H-indazole] | 70.9 nM | 211 nM | 28.3 nM | 2360 nM | 1880 nM | 846 nM
COc1cccc(Cc2ccc3[nH]nc(C#Cc4ccccn4)c3c2)c1 [DYX-135Q, 5-(3-methoxybenzyl)-3-(pyridin-2-ylethynyl)-1H-indazole] | 292 nM | 817 nM | 211 nM | > 10000 nM | > 10000 nM | > 10000 nM

Compounds with a lower IC50 (TRKA), results first:

IC50 (TRKA) | IC50 (TRKB) | IC50 (TRKC) | IC50 (BaF3-CD74-NTRK1) | IC50 (BaF3-ETV6-NTRK2) | IC50 (BaF3-ETV6-NTRK3) | Compound
49.4 nM | 70.5 nM | 22.5 nM | 2990 nM | 2980 nM | 2400 nM | COc1cccc(Cc2ccc3[nH]nc(/C=C/c4ccccn4)c3c2)c1 [DYX-135X, (E)-5-(3-methoxybenzyl)-3-(2-(pyridin-2-yl)vinyl)-1H-indazole]
39.8 nM | 170 nM | 26.6 nM | 1440 nM | 1020 nM | 820 nM | Fc1cccc(F)c1Cc1ccc2[nH]nc(/C=C/c3ccccn3)c2c1 [DYX-081, (E)-5-(2,6-difluorobenzyl)-3-(2-(pyridin-2-yl)vinyl)-1H-indazole]
31.3 nM | 71.3 nM | 20 nM | 2900 nM | 1610 nM | 2210 nM | Fc1cc(F)cc(COc2ccc3[nH]nc(C#Cc4ccccn4)c3c2)c1 [DYX-131, 5-((3,5-difluorobenzyl)oxo)-3-(pyridin-2-ylethynyl)-1H-indazole]
21.8 nM | 36.6 nM | 24.8 nM | 595 nM | 571 nM | 500 nM | Fc1cc(F)cc(Oc2ccc3[nH]nc(/C=C/c4ccccn4)c3c2)c1 [DYX-101, (E)-5-(3,5-difluorophenoxy)-3-(2-(pyridin-2-yl)vinyl)-1H-indazole]
15.2 nM | 67.8 nM | 8.5 nM | 584 nM | 248 nM | 159 nM | Fc1cccc(Cc2ccc3[nH]nc(/C=C/c4ccccn4)c3c2)c1F [DYX-082, (E)-5-(2,3-difluorobenzyl)-3-(2-(pyridin-2-yl)vinyl)-1H-indazole]
9.9 nM | 79.9 nM | 35.7 nM | 480 nM | 295 nM | 158 nM | Fc1cc(F)cc(Sc2ccc3[nH]nc(/C=C/c4ccccn4)c3c2)c1 [DYX-090, (E)-5-((3,5-difluorophenyl)thio)-3-(2-(pyridin-2-yl)vinyl)-1H-indazole]
8.1 nM | 43.1 nM | 21.4 nM | 888 nM | 914 nM | 749 nM | O=S(=O)(c1cc(F)cc(F)c1)c1ccc2[nH]nc(C#Cc3ccccn3)c2c1 [DYX-108, 5-((3,5-difluorophenyl)sulfonyl)-3-(pyridin-2-ylethynyl)-1H-indazole]
7.1 nM | 12.2 nM | 5.4 nM | 546 nM | 329 nM | 145 nM | Fc1ccc(F)c(Cc2ccc3[nH]nc(/C=C/c4ccccn4)c3c2)c1 [DYX-054, (E)-5-(2,5-difluorobenzyl)-3-(2-(pyridin-2-yl)vinyl)-1H-indazole]
3.3 nM | 9.8 nM | 3 nM | 156 nM | 178 nM | 96.2 nM | Fc1cc(F)cc(COc2ccc3[nH]nc(/C=C/c4ccccn4)c3c2)c1 [DYX-132, (E)-5-((3,5-difluorobenzyl)oxo)-3-(2-(pyridin-2-yl)vinyl)-1H-indazole]
1.2 nM | 7 nM | 2.8 nM | 411 nM | 175 nM | 155 nM | O=S(=O)(c1cc(F)cc(F)c1)c1ccc2[nH]nc(/C=C/c3ccccn3)c2c1 [DYX-114, (E)-5-((3,5-difluorophenyl)sulfonyl)-3-(2-(pyridin-2-yl)vinyl)-1H-indazole]
